Measured values: patent US8666675B2, “Computer method and system for predicting physical properties using a conceptual segment model” (Aspen Technology, Inc., priority 2004, dated 2014)

Key:
[1] = Solvent characteristics (hydrophobic / polar / hydrophilic / complex); assay type: physicochemical
Description: […] conceptual segments were defined for nonelectrolyte molecules: a hydrophobic segment, a polar segment, a hydrophilic segment and a solvation segment. […] Real molecules in turn are used as reference molecules for the conceptual segments and available phase equilibrium data of these reference molecules are used to identify NRTL binary parameters for the conceptual segments. […] The study was focused on the 59 ICH solvents used in pharmaceutical process design.
Hydrocarbon solvents (aliphatic or aromatic), halogenated hydrocarbons, and ethers are mainly hydrophobic. Ketones, esters and amides are both hydrophobic and polar. Alcohols, glycols, and amines may have both substantial hydrophilicity and hydrophobicity. Acids are complex, with hydrophilicity, polarity, and hydrophobicity.

[2] = compiled from internet websites and Aspen Properties v2004.1; cited from earlier work
[3] = cited from earlier work

Compound | Solvent characteristics [1] | dielectric constant at 298.15 K [2] | solubility ([3]; in chloroform and DMF, 298.15K) | solubility (data) ([3]; in benzene, cyclohexane, and heptane)
CC(Cl)(Cl)Cl [1,1,1-TRICHLOROETHANE, 1,1,1-Trichloroethane] | Hydrophobic | 7.5 |  | 
C=C(Cl)Cl [1,1-DICHLOROETHYLENE, 1,1-Dichloroethylene] | Hydrophobic | 4.6 |  | 
c1ccc2c(c1)CCCC2 [1,2,3,4-TETRAHYDRONAPHTHALENE, 1,2,3,4-Tetrahydronaphthalene] | Hydrophobic |  |  | 
ClCCCl [1,2-DICHLOROETHANE, 1,2-Dichloroethane] | Hydrophobic | 10.19 |  | 
ClC=CCl [1,2-DICHLOROETHYLENE, 1,2-Dichloroethylene] | Hydrophobic | 4.6 |  | 
COCCOC [1,2-DIMETHOXYETHANE, 1,2-Dimethoxyethane] | Polar |  |  | 
C1COCCO1 [1,4-DIOXANE, 1,4-Dioxane] | Polar | 2.21 |  | 
CCCCO [1-BUTANOL, 1-Butanol] | Hydrophobic/ | 17.7 |  | 
CCCCCCCCO [1-OCTANOL, 1-Octanol] | Hydrophobic/ | 10.3 |  | 
CCCCCO [1-PENTANOL, 1-Pentanol] | Hydrophobic/ | 13.9 |  | 
CCCO [1-PROPANOL, 1-Propanol] | Hydrophobic/ | 20.1 |  | 
CCC(C)O (stereo not drawn) [2-BUTANOL, 2-Butanol] | Hydrophobic/ | 15.8 |  | 
CCOCCO [2-ETHOXYETHANOL, 2-Ethoxyethanol] | Hydrophobic/ |  |  | 
COCCO [2-METHOXYETHANOL, 2-Methoxyethanol] | Hydrophobic/ |  |  | 
CC(C)CCO [3-METHYL-1-BUTANOL, 3-Methyl-1-butanol] | Hydrophobic/ | 14.7 |  | 
CC(=O)O [ACETIC-ACID, Acetic acid] | Complex | 6.13 |  | 
CC(C)=O [ACETONE, Acetone] | Polar | 20.83 |  | 
CC#N [ACETONITRILE, Acetonitrile] | Polar | 36.97 |  | 
COc1ccccc1 [ANISOLE, Anisole] | Hydrophobic | 4.3 |  | 
c1ccccc1 [BENZENE, Benzene] | Hydrophobic | 2.27 |  | 
ClC(Cl)(Cl)Cl [CARBON-TETRACHLORIDE, Carbon-tetrachloride] | Hydrophobic | 2.23 |  | 

Compound | Solvent characteristics [1] | dielectric constant at 298.15 K [2] | solubility ([3]; in chloroform and DMF, 298.15K) | solubility (data) ([3]; in benzene, cyclohexane, and heptane)
Clc1ccccc1 [CHLOROBENZENE, Chlorobenzene] | Hydrophobic | 5.56 |  | 
ClC(Cl)Cl [CHLOROFORM, Chloroform] | Hydrophobic |  |  | 
CC(C)c1ccccc1 [CUMENE, Cumene] | Hydrophobic | 2.22 |  | 
C1CCCCC1 [CYCLOHEXANE, Cyclohexane] | Hydrophobic | 2.02 |  | 
ClCCl [DICHLOROMETHANE, Dichloromethane] | Polar | 8.9 |  | 
CCOCC [DIETHYL-ETHER, Diethyl-ether] | Hydrophobic | 4.26 |  | 
C[S+](C)[O-] [Dimethyl-sulfoxide] | Polar | 47.2 |  | 
CCO [ETHANOL, Ethanol] | Hydrophobic/ | 24.11 |  | 
CCOC(C)=O [ETHYL-ACETATE, Ethyl-acetate] | Hydrophobic/Polar | 6.02 |  | 
CCOC=O [ETHYL-FORMATE, Ethyl-formate] | Polar | 7.16 |  | 
OCCO [Ethylene-glycol] | Hydrophilic |  |  | 
NC=O [FORMAMIDE, Formamide] | Complex | 109.5 |  | 
O=CO [FORMIC-ACID, Formic-acid] | Complex |  |  | 
O=C(CCCN1CCC(O)(c2ccc(Cl)cc2)CC1)c1ccc(F)cc1 [Haloperidol] |  |  | unusually high solubilities | 
CC(C)CO [ISOBUTANOL, Isobutanol] | Hydrophobic/ | 17.9 |  | 
CC(=O)OCC(C)C [ISOBUTYL-ACETATE, Isobutyl-acetate] | Polar | 5.6 |  | 
CC(=O)OC(C)C [ISOPROPYL-ACETATE, Isopropyl-acetate] | Polar |  |  | 
CC(C)O [ISOPROPYL-ALCOHOL, Isopropyl-alcohol] | Hydrophobic/ | 19.9 |  | 
Cc1cccc(C)c1 [M-XYLENE, m-Xylene] | Hydrophobic | 2.24 |  | 
CO [METHANOL, Methanol] | Hydrophobic/ | 32.62 |  | 
COC(C)=O [METHYL-ACETATE, Methyl-acetate] | Polar | 6.68 |  | 

Compound | Solvent characteristics [1] | dielectric constant at 298.15 K [2] | solubility ([3]; in chloroform and DMF, 298.15K) | solubility (data) ([3]; in benzene, cyclohexane, and heptane)
CCC(C)=O [METHYL-ETHYL-KETONE, Methyl-ethyl-ketone] | Hydrophobic/Polar | 18.5 |  | 
CC(=O)CC(C)C [METHYL-ISOBUTYL-KETONE, Methyl-isobutyl-ketone] | Hydrophobic/Polar | 13.1 |  | 
COC(C)(C)C [METHYL-TERT-BUTYL-ETHER, Methyl-tert-butyl-ether] | Hydrophobic | 2.6 |  | 
CC1CCCCC1 [METHYLCYCLOHEXANE, Methylcyclohexane] | Polar | 2.02 |  | 
CN(C)C=O [N,N-DIMETHYLFORMAMIDE, N,N-Dimethylformamide] | Polar | 38.3 |  | 
CCCCOC(C)=O [N-BUTYL-ACETATE, n-Butyl-acetate] | Hydrophobic/Polar | 5.1 |  | 
CCCCCCC [N-HEPTANE, n-Heptane] | Hydrophobic | 1.92 |  | 
CCCCCC [N-HEXANE, n-Hexane] | Hydrophobic |  |  | 
CN1CCCC1=O [N-METHYL-2-PYRROLIDONE, N-Methyl-2-pyrrolidone] | Hydrophobic | 33 |  | 
CCCCC [N-PENTANE, n-Pentane] | Hydrophobic | 1.84 |  | 
CCCOC(C)=O [N-PROPYL-ACETATE, n-propyl-acetate] | Hydrophobic/Polar | 6 |  | 
C[N+](=O)[O-] [NITROMETHANE, Nitromethane] | Polar | 6.26 |  | 
c1ccncc1 [PYRIDINE, Pyridine] | Polar |  |  | 
O=S1(=O)CCCC1 [SULFOLANE, Sulfolane] | Polar | 43.3 |  | 
C1CCOC1 [TETRAHYDROFURAN, Tetrahydrofuran] | Polar | 7.52 |  | 
Cc1ccccc1 [TOLUENE, Toluene] | Hydrophobic | 2.36 |  | 
ClC=C(Cl)Cl [TRICHLOROETHYLENE, Trichloroethylene] | Hydrophobic | 3.42 |  | 
CCN(CC)CC [TRIETHYLAMINE, Triethylamine] | Hydrophobic/Polar | 2.44 |  | 
O [WATER, Water] | Hydrophilic | 78.54 |  | 
O=C([O-])c1ccccc1O.[Na+] [sodium salicylate] |  |  |  | very low but measurable solubility
methyl-butyl-ketone (2-hexanone) | Hydrophobic/Polar | 14.6 |  | 
